Assays:
Type in all cases: cell-based
human fibroblasts = experiment: Inhibition of UVA effect on human fibroblasts
Method: Aim of the experiment: Determination of the potential of the tested ingredient to reduce negative effects of UV-A radiation on the survival rate of human fibroblasts.
• Seeding of human fibroblasts in a growth medium • Incubation for 3 days at 37° C., CO2=5% (atmosphere: 5% carbon dioxide in air) • Exchange of the growth medium by a medium with a range of concentration of ingredients to be tested • Incubation for 2 days at 37° C., CO2=5% • Exchange of the medium with ingredients by a balanced salt solution and UV-A irradiation (20 J/cm^2) • Recording of released MDA levels by spectro-fluorimetry. (MDA (malonaldialdehyde) is a product of oxidative degradation of lipids from cell membranes) • Recording of intracellular proteins by Bradford's method
Results in % against control (average of 2 assays in triplicate): […]

B16 melanocytes = experiment: Inhibition of melanin synthesis, efficacy test on B16 melanocytes
Method: Aim of the experiment: to evaluate the potential of compounds to lower the melanin synthesis; the compounds have been tested on a cell culture of melanocytes called B16. • Seeding of melanocytes in growth medium • Incubation for 3 days at 37° C., CO2=5% (atmosphere: 5% carbon dioxide in air) • Exchange of the growth medium by a medium with a range of concentration of ingredients to be tested • Incubation for 3 days at 37° C., CO2=5% (atmosphere: 5% carbon dioxide in air) • Recording of Cellular levels of protein by Bradford's method • Recording of melanin by a spectrophotometric method (OD at 475 nm) Results in % against control (average of 2 assays in triplicate): […]

human keratinocytes = experiment: Inhibition of UVB effect on human keratinocytes
Excerpt: Aim of the experiment: Determination of the potential of the tested ingredient to reduce negative effects of UV-B radiation on the survival rate of human keratinocytes. It is well known that UV-B radiation induces a cutaneous inflammation by stimulation of enzymes such as phospholipase A2 (PLA2). This enzyme catalyses the release of arachidonic acid which is a precursor of mediators of inflammation like the prostaglandin PGE2. Moreover this membrane stress results in the release of a cytoplasmic enzyme: lactate dehydrogenase (LDH). • Seeding of human keratinocytes in a growth medium • Incubation for 3 days at 37° C., CO2=5% (atmosphere: 5% carbon dioxide in air) • Exchange of the growth medium by balanced salt solution with a range of concentration of ingredients to be tested • Irradiation of keratinocytes by UV-B: 30 mJ/cm^2 • Incubation for 1 day at 37° C., CO2=5% • Recording of cell number by DNA measurement with a fluorescent probe • Recording of the level of released LDH (by an enzymatic reaction) and released PGE2 (by ELISA method) Results in % against control (average of 2 assays in triplicate): […]

[1] = UV-A 20 J/cm2, dose 0.0003 % w/v
[2] = UV-B 30 mJ/cm2, dose 0.03 % w/v

Q: How did the “rate of released MDA from UV-A irradiated fibroblasts (in words)” value (human fibroblasts) turn out when Vitamin E was run?
A: Its value is “strongly decreased”.

Q: What about the Intracellular proteins (human fibroblasts; [1]) of the same compound?
A: Its Intracellular proteins is 103 % against control.

Q: What about the “Rate of released MDA” value (human fibroblasts; [1]) of the same compound?
A: The value was 25 % against control.

Q: `O=c1cc(CO)occ1O` [kojic acid] was tested. Which “rate of released melanin from treated B16 melanocytes (in words)” value (B16 melanocytes) did it give?
A: Its value is “strongly decreased”.

Q: What about the “Rate of cellular proteins” value (B16 melanocytes; dose 0.03 % w/v) of the same compound?
A: Its value is 117 % against control.

Q: What about the Rate of melanin (B16 melanocytes; dose 0.03 % w/v) of the same compound?
A: Its Rate of melanin is 34 % against control.

Q: For `CC(=O)Oc1ccccc1C(=O)O` [Aspirin ®, Aspirin], which “level of cell number from UV-B irradiated keratinocytes (in words)” value (human keratinocytes) is on record?
A: The value was “strongly increased”.

Q: What about the “level of released LDH from UV-B irradiated keratinocytes (in words)” value (human keratinocytes) of the same compound?
A: The value was “strongly decreased”.

Q: And the “level of released PGE2 from UV-B irradiated keratinocytes (in words)” value (human keratinocytes)?
A: The value was “strongly decreased”.

Q: And the Cell number (human keratinocytes; [2])?
A: The Cell number was 59 % against control.

Q: And the “Level of released LDH” value (human keratinocytes; [2])?
A: The value was 8 % against control.

Q: And the “Level of released PGE2” value (human keratinocytes; [2])?
A: The value was 0 % against control.

— patent US8603545B2, “Cosmetic and pharmaceutical uses of an extract of a plant belonging to the genus Buchholzia” (BASF Beauty Care Solutions France S.A.S., priority 2004, dated 2013)
